Experimental data from ChEMBL document CHEMBL1139561, “Biaryl isoxazolinone antibacterial agents” (Bioorg Med Chem Lett, 2005).
Values after ≈ are worked out from the molar mass of the structure shown.

Legend:
[1] = tested on: Haemophilus influenzae; assay: Minimum inhibition concentration against Haemophilus influenzae strains; assay type: functional
[2] = tested on: Staphylococcus aureus; assay: Minimum inhibition concentration against Staphylococcus aureus strains in presence of 4% calf serum; assay type: functional
[3] = tested on: Staphylococcus aureus; assay: Minimum inhibition concentration against Staphylococcus aureus strains in presence of 16% calf serum; assay type: functional
[4] = tested on: Staphylococcus aureus; assay: Minimum inhibition concentration against Staphylococcus aureus strains in presence of 1% calf serum; assay type: functional
[5] = Maximum serum concentration in mouse was determined; assay type: ADME, organism-based
[6] = Area under curve concentration in mouse was determined; assay type: ADME; conditions: in vivo
[7] = Half life for compound in mouse was determined; assay type: ADME; conditions: in vivo
[8] = tested on: Staphylococcus aureus; assay: Minimum inhibition concentration against Staphylococcus aureus strains in presence of 0.25% calf serum; assay type: functional
[9] = Protective dose against Staphylococcus aureus in mice after 8 days of oral b.i.d. administration at 1 and 5 hr per interval (n=10); assay type: functional; conditions: read-out: PD50
[10] = Minimum inhibition concentration against Haemophilus influenzae strains; range is 2-8 […]; assay type: functional
[11] = tested on: Staphylococcus aureus; assay: Minimum inhibition concentration against Staphylococcus aureus strains in presence of 8% calf serum; assay type: functional
[12] = tested on: Staphylococcus aureus; assay: Minimum inhibition concentration against Staphylococcus aureus strains in presence of 2% calf serum; assay type: functional
[13] = tested on: Staphylococcus aureus; assay: Minimum inhibition concentration against Staphylococcus aureus strains in presence of >32% calf serum; assay type: functional
[14] = tested on: Staphylococcus aureus; assay: Minimum inhibition concentration against Staphylococcus aureus strains in presence of >64% calf serum; assay type: functional
[15] = tested on: Staphylococcus aureus; assay: Minimum inhibition concentration against Staphylococcus aureus strains in presence of 0.5% calf serum; assay type: functional
[16] = Half life for compound in rat was determined; assay type: ADME; conditions: in vivo
[17] = Maximum serum concentration in rat was determined; assay type: ADME, organism-based
[18] = tested on: Staphylococcus aureus; assay: Minimum inhibition concentration against Staphylococcus aureus strains in presence of 32% calf serum; assay type: functional; conditions: Staphylococcus aureus

Compound: CC(=O)NCn1cc(-c2ccc(-c3ccc(F)cc3F)cc2)c(=O)o1
- MIC [1]: 4 µg/mL (≈ 11.6 µM)
- MIC [2]: 0.125 µg/mL

Compound: CC(=O)NCn1cc(-c2ccc(C3CCN(C(=O)OC(C)(C)C)CC3)cc2)c(=O)o1
- MIC [1]: 32 µg/mL (≈ 77 µM)
- MIC [3]: 8 µg/mL

Compound: CC(=O)NCn1cc(-c2ccc(-c3ccc([N+](=O)[O-])cc3)cc2)c(=O)o1
- MIC [1]: > 32 µg/mL
- MIC [4]: 0.03 µg/mL

Compound: CC(=O)NCn1cc(-c2ccc(-c3cncnc3)cc2)c(=O)o1
- MIC [1]: 4 µg/mL (≈ 12.9 µM)
- Cmax [5]: 10400 ng/mL
- AUC [6]: 29.1 µg/h/mL
- half-life [7]: 103 min
- MIC [8]: 0.25 µg/mL
- ED50 [9]: > 14.1 mg/kg/day

Compound: COc1ccc(-c2ccc(-c3cn(CNC(C)=O)oc3=O)cc2)cc1OC
- MIC [1]: 32 µg/mL (≈ 86.9 µM)
- MIC [4]: 0.25 µg/mL

Compound: CC(=O)NCn1cc(-c2ccc(-c3cncs3)cc2)c(=O)o1
- MIC [1]: 4 µg/mL (≈ 12.7 µM)
- MIC [2]: 0.5 µg/mL

Compound: CC(=O)NCn1cc(-c2ccc(C3=CCOCC3)cc2)c(=O)o1
- MIC [1]: 4 µg/mL (≈ 12.7 µM)
- MIC [4]: 0.25 µg/mL

Compound: CC(=O)NCn1cc(-c2ccc(-c3ccc(OC(F)(F)F)cc3)cc2)c(=O)o1
- MIC [1]: > 32 µg/mL
- MIC [3]: 0.5 µg/mL

Compound: CC(=O)NCn1cc(-c2ccc(-c3cccs3)cc2)c(=O)o1
- MIC [10]: 2 µg/mL (≈ 6.36 µM)
- MIC [11]: 0.25 µg/mL

Compound: CC(=O)NCn1cc(-c2ccc(C3=CC[S+]([O-])CC3)cc2)c(=O)o1 (configuration not stated)
- MIC [1]: 2 µg/mL (≈ 5.77 µM)
- Cmax [5]: 8300 ng/mL
- MIC [4]: 0.5 µg/mL
- AUC [6]: 5.5 µg/h/mL
- half-life [7]: 22.2 min
- ED50 [9]: 5.6 mg/kg/day

Compound: CC(=O)NCn1cc(-c2ccc(-c3sccc3C=O)cc2)c(=O)o1
- MIC [1]: 64 µg/mL (≈ 187 µM)
- MIC [4]: 0.5 µg/mL

Compound: CC(=O)NCn1cc(-c2ccc(-c3cc(C)cs3)cc2)c(=O)o1
- MIC [1]: > 64 µg/mL
- MIC [2]: 0.25 µg/mL

Compound: CC(=O)NCn1cc(-c2ccc(-c3ccc(Cl)cc3)cc2)c(=O)o1
- MIC [1]: > 32 µg/mL
- MIC [11]: 0.06 µg/mL

Compound: CC(=O)NCn1cc(-c2ccc(-c3ccc(C(C)=O)cc3)cc2)c(=O)o1
- MIC [12]: 0.06 µg/mL
- MIC [1]: 4 µg/mL (≈ 11.4 µM)

Compound: CC(=O)NCn1cc(-c2ccc(-c3ccc(Oc4ccccc4)cc3)cc2)c(=O)o1
- MIC [1]: > 32 µg/mL
- MIC [13]: 64 µg/mL

Compound: CC(=O)NCn1cc(-c2ccc(C3=CCSCC3)cc2)c(=O)o1
- MIC [1]: 32 µg/mL (≈ 96.8 µM)
- MIC [2]: 1 µg/mL

Compound: CSc1ccc(-c2ccc(-c3cn(CNC(C)=O)oc3=O)cc2)cc1
- MIC [1]: > 32 µg/mL
- MIC [3]: 0.5 µg/mL

Compound: COc1cc(-c2ccc(-c3cn(CNC(C)=O)oc3=O)cc2)cc(OC)c1OC
- MIC [1]: > 32 µg/mL
- MIC [3]: 4 µg/mL

Compound: CC(=O)NCn1cc(-c2ccc(-c3ccoc3)cc2)c(=O)o1
- MIC [1]: 4 µg/mL (≈ 13.4 µM)
- MIC [2]: 0.125 µg/mL
- ED50 [9]: > 50 mg/kg/day

Compound: CC(=O)NCn1cc(-c2ccc(-c3cccc(C(=O)O)c3)cc2)c(=O)o1
- MIC [1]: 8 µg/mL (≈ 22.7 µM)
- MIC [3]: 16 µg/mL

Compound: CC(=O)NCn1cc(-c2ccc(C3=CCNCC3)cc2)c(=O)o1
- MIC [1]: 16 µg/mL (≈ 51.1 µM)
- MIC [11]: 8 µg/mL

Compound: CC(=O)NCn1cc(-c2ccc(-c3ccc(/C=C/[N+](=O)[O-])cc3)cc2)c(=O)o1
- MIC [1]: 4 µg/mL (≈ 10.5 µM)
- MIC [2]: 0.125 µg/mL

Compound: CC(=O)NCn1cc(-c2ccc(-c3ccc(Cl)s3)cc2)c(=O)o1
- MIC [1]: 4 µg/mL (≈ 11.5 µM)
- MIC [11]: 0.06 µg/mL

Compound: CC(=O)NCn1cc(-c2ccc(-c3cccc(N)c3)cc2)c(=O)o1
- MIC [12]: 0.125 µg/mL
- MIC [1]: 2 µg/mL (≈ 6.19 µM)

Compound: CC(=O)NCn1cc(-c2ccc(-c3cccnc3)cc2)c(=O)o1
- MIC [1]: 2 µg/mL (≈ 6.47 µM)
- Cmax [5]: 15300 ng/mL
- AUC [6]: 41.1 µg/h/mL
- MIC [2]: 0.5 µg/mL
- half-life [7]: 86.7 min
- ED50 [9]: 10 mg/kg/day

Compound: CC(=O)NCn1cc(-c2ccc(-c3sccc3CN3CCOCC3)cc2)c(=O)o1
- MIC [1]: > 64 µg/mL
- MIC [14]: 8 µg/mL

Compound: CC(=O)NCn1cc(-c2ccc(C3=CCN(C(=O)CO)CC3)cc2)c(=O)o1
- MIC [1]: 2 µg/mL (≈ 5.39 µM)
- MIC [15]: 0.25 µg/mL
- Cmax [5]: 22900 ng/mL
- half-life [16]: 36 min
- AUC [6]: 16.9 µg/h/mL
- Cmax [17]: 1900 ng/mL
- half-life [7]: 23.5 min
- ED50 [9]: 4 mg/kg/day

Compound: CC(=O)NCn1cc(-c2ccc(-c3ccco3)cc2)c(=O)o1
- MIC [1]: 16 µg/mL (≈ 53.6 µM)
- MIC [18]: 1 µg/mL

Compound: CC(=O)NCn1cc(-c2ccc(-c3cncc(C(=O)O)c3)cc2)c(=O)o1
- MIC [1]: 64 µg/mL (≈ 181 µM)
- MIC [14]: 32 µg/mL
